Results taken from US4383113A, “Agricultural sulfonamides” (E. I. Du Pont de Nemours and Company, priority 1981, dated 1983).

Key:
cocklebur [1] = assay: Test A pre-emergence; format: in vivo, Xanthium spp.; parameters: key: 0 = no effect, 10 = maximum effect; letter = response symbol
Outline: (§1)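 Seeds and tubers were treated preemergence in a growth medium with compound in a nonphytotoxic solvent, against untreated controls; emerged plants such as two-leaf barnyardgrass and five-leaf cotton were sprayed postemergence, against solvent-sprayed controls. After sixteen days in a greenhouse, response was rated visually from 0 to 10.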

morningglory [2] = assay: Test A pre-emergence; format: in vivo, Ipomoea spp.; parameters: key: 0 = no effect, 10 = maximum effect; letter = response symbol
Outline: as §1

wheat [3] = assay: Test A pre-emergence; format: in vivo; parameters: key: 0 = no effect, 10 = maximum effect; letter = response symbol; conditions: 0.4 kg/ha
Outline: as §1

corn [4] = assay: Test A pre-emergence; format: in vivo; parameters: key: 0 = no effect, 10 = maximum effect; letter = response symbol
Outline: as §1

sorghum [5] = assay: Test A pre-emergence; format: in vivo; parameters: key: 0 = no effect, 10 = maximum effect; letter = response symbol
Outline: as §1

soybean [6] = assay: Test A pre-emergence; format: in vivo; parameters: key: 0 = no effect, 10 = maximum effect; letter = response symbol
Outline: as §1

rice [7] = assay: Test A pre-emergence; format: in vivo; parameters: key: 0 = no effect, 10 = maximum effect; letter = response symbol; conditions: 0.4 kg/ha
Outline: as §1

crabgrass [8] = assay: Test A pre-emergence; format: in vivo, Digitaria spp.; parameters: key: 0 = no effect, 10 = maximum effect; letter = response symbol
From the text: (§2) The activity of these compounds was discovered in a number of greenhouse and field tests. The ratings are based on a numerical scale extending from 0=no effect, to 10=maximum effect. The accompanying descriptive symbols have the following meanings:
(§3) Seeds of crabgrass (Digitaria spp.), barnyardgrass (Echinochloa crusgalli), wild oats (Avena fatua), cassia (Cassia tora), morningglory (Ipomoea spp.), cocklebur (Xanthium spp.), sorghum, corn, soybean, rice, wheat and nutsedge tubers (Cyperus rotundus) were planted in a growth medium and treated preemergence with a nonphytotoxic solvent solution of the compounds of Table XII. Other batches of seeds and tubers for all of the foregoing weed and crop plants were planted at the same time as controls. The control plantings were untreated; i.e., neither any compound nor any solvent was applied. At the same time, cotton having five leaves (including cotyledonary ones), bush beans with the third trifoliate leaf expanding, crabgrass with two leaves, barnyardgrass with two leaves, wild oats with two leaves, cassia with three leaves (including cotyledonary ones), morningglory with four leaves (including the cotyledonary ones), cocklebur with four leaves (including the cotyledonary ones), sorghum with four leaves, corn with four leaves, soybean with two cotyledonary leaves, rice with three leaves, wheat with one leaf, and nutsedge with three-five leaves were sprayed with a nonphytotoxic solvent solution of the compounds of Table XII. Other groups of all the same weed and crop plants were sprayed with the same nonphytotoxic solvent so as to provide control plants. Preemergence and postemergence treated plants and controls were maintained in a greenhouse for sixteen days, then all treated plants were compared with their respective controls and rated visually for response to treatment.

wild oats [9] = assay: Test A pre-emergence; format: in vivo, Avena fatua; parameters: key: 0 = no effect, 10 = maximum effect; letter = response symbol; conditions: 0.4 kg/ha
Outline: as §1

nutsedge [10] = assay: Test A pre-emergence; format: in vivo, Cyperus rotundus
From the text: as §2, §3

cassia [11] = assay: Test A pre-emergence; format: in vivo, Cassia tora; parameters: key: 0 = no effect, 10 = maximum effect; letter = response symbol; conditions: 0.4 kg/ha
Outline: as §1

barnyardgrass [12] = assay: Test A pre-emergence; format: in vivo, Echinochloa crusgalli; parameters: key: 0 = no effect, 10 = maximum effect; letter = response symbol; conditions: 0.4 kg/ha
Outline: as §1

bush bean = assay: Test A post-emergence; format: in vivo, bush beans; parameters: key: 0 = no effect, 10 = maximum effect; letter = response symbol; conditions: 0.4 kg/ha
barnyardgrass [13] = assay: Test A post-emergence; format: in vivo, Echinochloa crusgalli; parameters: key: 0 = no effect, 10 = maximum effect; letter = response symbol; conditions: 0.4 kg/ha
Outline: as §1

morningglory [14] = assay: Test A post-emergence; format: in vivo, Ipomoea spp.; parameters: key: 0 = no effect, 10 = maximum effect; letter = response symbol; conditions: 0.4 kg/ha
Outline: as §1

cotton = assay: Test A post-emergence; format: in vivo; parameters: key: 0 = no effect, 10 = maximum effect; letter = response symbol; conditions: 0.4 kg/ha
Outline: as §1

wheat [15] = assay: Test A post-emergence; format: in vivo; parameters: key: 0 = no effect, 10 = maximum effect; letter = response symbol; conditions: 0.4 kg/ha
Outline: as §1

corn [16] = assay: Test A post-emergence; format: in vivo; parameters: key: 0 = no effect, 10 = maximum effect; letter = response symbol; conditions: 0.4 kg/ha
Outline: as §1

sorghum [17] = assay: Test A post-emergence; format: in vivo; parameters: key: 0 = no effect, 10 = maximum effect; letter = response symbol; conditions: 0.4 kg/ha
Outline: as §1

soybean [18] = assay: Test A post-emergence; format: in vivo; parameters: key: 0 = no effect, 10 = maximum effect; letter = response symbol; conditions: 0.4 kg/ha
Outline: as §1

rice [19] = assay: Test A post-emergence; format: in vivo; parameters: key: 0 = no effect, 10 = maximum effect; letter = response symbol; conditions: 0.4 kg/ha
Outline: as §1

wild oats [20] = assay: Test A post-emergence; format: in vivo, Avena fatua; parameters: key: 0 = no effect, 10 = maximum effect; letter = response symbol; conditions: 0.4 kg/ha
Outline: as §1

crabgrass [21] = assay: Test A post-emergence; format: in vivo, Digitaria spp.; parameters: key: 0 = no effect, 10 = maximum effect; letter = response symbol; conditions: 0.4 kg/ha
Outline: as §1

nutsedge [22] = assay: Test A post-emergence; format: in vivo, Cyperus rotundus; parameters: key: 0 = no effect, 10 = maximum effect; letter = response symbol; conditions: 0.4 kg/ha
Outline: as §1

cocklebur [23] = assay: Test A post-emergence; format: in vivo, Xanthium spp.; parameters: key: 0 = no effect, 10 = maximum effect; letter = response symbol; conditions: 0.4 kg/ha
Outline: as §1

cassia [24] = assay: Test A post-emergence; format: in vivo, Cassia tora; parameters: key: 0 = no effect, 10 = maximum effect; letter = response symbol; conditions: 0.4 kg/ha
Outline: as §1

COc1nc(NC(=O)NS(=O)(=O)c2ccccc2C(=O)OCCCl)nc(OC)n1 [drawing 489]
response rating (cocklebur [1]; 0.4 kg/ha): 9G
response rating (morningglory [2]; 0.4 kg/ha): 9C
response rating (wheat [3]): 5G
response rating (corn [4]; 0.4 kg/ha): 9G
response rating (sorghum [5]; 0.4 kg/ha): 9G
response rating (soybean [6]; 0.4 kg/ha): 9H
response rating (rice [7]): 9H
response rating (crabgrass [8]; 0.4 kg/ha): 4G
response rating (wild oats [9]): 8G

COc1nc(C)nc(NC(=O)NS(=O)(=O)c2ccccc2C(=O)Oc2ccccc2C)n1
response rating (nutsedge [10]; 0.4 kg/ha): 8G
response rating (cassia [11]): 9G
response rating (barnyardgrass [12]): 9H
response rating (cocklebur [1]; 0.4 kg/ha): 9G
response rating (morningglory [2]; 0.4 kg/ha): 9G
response rating (soybean [6]; 0.4 kg/ha): 9H

COC(=O)c1ccccc1S(=O)(=O)NC(=O)Nc1nc(C)nc(OC)n1 [drawing 415]
response rating (bush bean): 9C
response rating (barnyardgrass [13]): 10C
response rating (morningglory [14]): 10C
response rating (cotton): 9C
response rating (wheat [15]): 10C
response rating (corn [16]): 10C
response rating (sorghum [17]): 10C
response rating (soybean [18]): 9C
response rating (rice [19]): 10C
response rating (wild oats [20]): 10C
response rating (crabgrass [21]): 10C
response rating (nutsedge [22]): 9C
response rating (cocklebur [23]): 9C

Cc1cc(C)nc(NC(=O)NS(=O)(=O)c2ccccc2C(=O)O)n1 [drawing 511]
response rating (nutsedge [10]; 10 kg/ha): 9G
response rating (cocklebur [1]; 10 kg/ha): 9G
response rating (morningglory [2]; 10 kg/ha): 7G
response rating (corn [4]; 10 kg/ha): 8
response rating (sorghum [5]; 10 kg/ha): 5G
response rating (soybean [6]; 10 kg/ha): 4G
response rating (crabgrass [8]; 10 kg/ha): 1C

COc1nc(C)nc(NC(=O)NS(=O)(=O)c2ccccc2C(=O)OC(C)CCl)n1 (centres unmarked) [drawing 526]
response rating (cassia [11]): 8G
response rating (cocklebur [1]; 0.4 kg/ha): 9G
response rating (morningglory [2]; 0.4 kg/ha): 9G
response rating (wheat [3]): 4G
response rating (corn [4]; 0.4 kg/ha): 9G
response rating (sorghum [5]; 0.4 kg/ha): 9H
response rating (soybean [6]; 0.4 kg/ha): 9H
response rating (rice [7]): 9H

COc1cc(C)nc(NC(=O)NS(=O)(=O)c2ccccc2C(=O)CCC(C)C)n1 [drawing 516]
response rating (nutsedge [10]; 0.4 kg/ha): 9G
response rating (cassia [11]): 9G
response rating (cocklebur [1]; 0.4 kg/ha): 9G
response rating (morningglory [2]; 0.4 kg/ha): 9G
response rating (wheat [3]): 9G
response rating (corn [4]; 0.4 kg/ha): 9G
response rating (sorghum [5]; 0.4 kg/ha): 9H
response rating (soybean [6]; 0.4 kg/ha): 8H

CCCCCCOC(=O)c1ccccc1S(=O)(=O)NC(=O)Nc1nc(C)cc(COC)n1 [drawing 538]
response rating (cassia [11]): 0
response rating (barnyardgrass [12]): 2G
response rating (cocklebur [1]; 0.4 kg/ha): 0
response rating (morningglory [2]; 0.4 kg/ha): 0
response rating (wheat [3]): 0
response rating (sorghum [5]; 0.4 kg/ha): 3G
response rating (soybean [6]; 0.4 kg/ha): 0
response rating (rice [7]): 8H
response rating (crabgrass [8]; 0.4 kg/ha): 0
response rating (wild oats [9]): 0

COC(=O)c1ccccc1S(=O)(=O)NC(=O)Nc1nc(OC)cc(OC)n1 [drawing 414]
response rating (bush bean): 9C
response rating (barnyardgrass [13]): 9C
response rating (morningglory [14]): 10C
response rating (cotton): 9C
response rating (wheat [15]): 9C
response rating (corn [16]): 9C
response rating (sorghum [17]): 9C
response rating (soybean [18]): 9C
response rating (rice [19]): 8C
response rating (wild oats [20]): 9C
response rating (cassia [24]): 9C
response rating (nutsedge [22]): 10C
response rating (cocklebur [23]): 9C
